Reference: publication PMC3726442 (PLoS ONE, 2013)
Blank lines part the entries; values can stand above or below the compound they belong to.

Key:
estrogen receptor = details: cited from earlier work
[1] = cited from earlier work
[2] = Plasma concentrations of tamoxifen and its metabolites in breast cancer patients on tamoxifen, by HPLC-tandem mass spectrometry
Excerpt: One hundred and thirty five Caucasian patients of Spanish descent recently diagnosed with BC were recruited from the center Fundación Tejerina-Centro de Patología de la Mama (Madrid). Premenopausal and postmenopausal women were enrolled when started on TAM as standard adjuvant therapy after undergoing primary surgery, radiation and adjuvant chemotherapy. Patients were excluded if they had started TAM therapy simultaneously with either adjuvant chemotherapy or adjuvant radiation therapy (or both) or if they were undergoing other adjuvant endocrine therapies. Patients who were pregnant or breast-feeding were also excluded from the study. […] Blood samples were collected within 3 to 60 months of initiating TAM treatment.
Venous blood was collected from all 135 subjects before taking their daily 20- mg dose of TAM. Ten milliliters of heparin plasma were separated by centrifugation and immediately stored at −20°C until analysis. In addition, one milliliter of an EDTA blood sample was taken for subsequent DNA extraction and genotyping. DNA was isolated from peripheral leukocytes using a QIAamp DNA Blood Mini Kit® (Qiagen, Madrid, Spain) according to the manufacturer’s instructions. The DNA concentration was determined and adjusted to 2–20 ng/ µL.
TAM and its metabolites were separated and quantified by high-pressure liquid chromatography-tandem mass spectrometry using an Agilent HPLC 1200 system. HPLC experiments were performed using a binary pump G1312A, a G1316A column oven, G1379B degasser and an automatic injector H-ALS G1367B. Mobile phase A and phase B consisted of 0.1% formic acid in water and acetonitrile, respectively. Mobile phases A and B were pumped through a ZORBAX Eclipse XDB-C18 column (150 mm×2.1 mm I.D., 3.5 µm, Agilent USA) at a flow rate of 0.2 mL/min using the gradient shown in Table 1. Separation was conducted at 30°C. 15- µL aliquots were injected and the autosampler needle was rinsed in acetonitrile/water solution (1∶1). The total run time was 20 min. During the first 4.0 and last 2.0 min, the eluate was removed using a divert valve to avoid endogenous compounds entering the mass spectrometer.
As a detector, we used an A 6410 Triple Quadrupole mass spectrometer (Agilent Technologies, USA) equipped with a heated electrospray ionization source (Thermo Fisher Scientific, Waltham, MA, USA) operating in positive ion mode. For quantification, multiple reaction monitoring (MRM) chromatograms were acquired using Mass Hunter software version B.01.04 (Agilent Technologies, USA). Positive ions were created at atmospheric pressure. Quadrupoles operated at unit resolution (0.7 Da).
A 300- µL volume of 1% formic acid in acetonitrile containing internal standards was added to a 100- µL serum aliquot. After vortexing and centrifugation, the clear supernatant was transferred to a HybridSPE column (Supelco) and the eluents stored at 2–8°C until analysis. Samples were analyzed in triplicate.
Descriptive statistics were calculated using standard methods. Metabolic ratios were calculated as the concentration of substrate/concentration of metabolite. The non-normal distribution of data was confirmed by the Kolmogorov-Smirnov test. Levels of TAM, metabolites and ratios between genotype groups were compared using Wilcoxon-Mann-Whitney or Kruskal-Wallis tests. All statistical tests (two-sided) were performed using SPSS software (version 18.0 SPSS, Chicago, IL). Significance was set at a p<0.05.

CYP3A4/5 = system: CYP3A4/5; design: method as in PMID 19088019; details: major primary metabolite, CYP3A4/5-mediated; cited from earlier work
[3] = all samples analyzed, n = 125, before daily 20 mg TAM dose

endoxifen levels in wt/wt CYP2D6 relative to v/v CYP2D6 patients ([2]; CYP2D6 genotype subgroups, Figure 1): over two-fold
mean plasma concentration (±SD) [2, 3]: 24.75 ± 19.37 ng/mL
median plasma concentration [2, 3]: 19.11 ng/mL
mean concentration relative to the 4OH-TAM mean concentration ([2]; all samples, n = 125): almost three times
plasma concentration, mean ±SD ([2]; genotype CYP2D6 I/I, n = 1): 9.53 ± 0.00 ng/mL
plasma concentration, median ([2]; genotype CYP2D6 I/I, n = 1): 9.53 ng/mL
plasma concentration, range ([2]; genotype CYP2D6 I/I, n = 1): (9.53–9.53) ng/mL
plasma concentration, mean ±SD ([2]; genotype CYP2D6 I/P, n = 8): 12.01 ± 5.84 ng/mL
plasma concentration, median ([2]; genotype CYP2D6 I/P, n = 8): 10.00 ng/mL
plasma concentration, range ([2]; genotype CYP2D6 I/P, n = 8): (4.46–21.02) ng/mL
plasma concentration, mean ±SD ([2]; genotype CYP2D6 P/P, n = 2): 8.71 ± 6.41 ng/mL
plasma concentration, median ([2]; genotype CYP2D6 P/P, n = 2): 8.71 ng/mL
plasma concentration, range ([2]; genotype CYP2D6 P/P, n = 2): (4.18–13.24) ng/mL
plasma concentration, mean ±SD ([2]; genotype CYP2D6 wt/I, n = 4): 26.87 ± 17.31 ng/mL
plasma concentration, median ([2]; genotype CYP2D6 wt/I, n = 4): 20.64 ng/mL
plasma concentration, range ([2]; genotype CYP2D6 wt/I, n = 4): (14.01–52.20) ng/mL
plasma concentration, mean ±SD ([2]; genotype CYP2D6 wt/P, n = 26): 23.76 ± 25.21 ng/mL
plasma concentration, median ([2]; genotype CYP2D6 wt/P, n = 26): 14.57 ng/mL
plasma concentration, range ([2]; genotype CYP2D6 wt/P, n = 26): (5.01–107.10) ng/mL
plasma concentration, mean ±SD ([2]; genotype CYP2D6 wt/wt, n = 78): 26.47 ± 17.89 ng/mL
plasma concentration, median ([2]; genotype CYP2D6 wt/wt, n = 78): 21.21 ng/mL
plasma concentration, range ([2]; genotype CYP2D6 wt/wt, n = 78): (4.03–95.87) ng/mL
plasma concentration, mean ±SD ([2]; genotype CYP2D6 wtxN/P, n = 2): 36.09 ± 32.08 ng/mL
plasma concentration, median ([2]; genotype CYP2D6 wtxN/P, n = 2): 36.09 ng/mL
plasma concentration, range ([2]; genotype CYP2D6 wtxN/P, n = 2): (13.40–58.77) ng/mL
plasma concentration, mean ±SD ([2]; genotype CYP3A4 wt/*1B, n = 3): 22.31 ± 10.86 ng/mL
plasma concentration, median ([2]; genotype CYP3A4 wt/*1B, n = 3): 26.69 ng/mL
plasma concentration, range ([2]; genotype CYP3A4 wt/*1B, n = 3): (9.95–30.30) ng/mL
plasma concentration, mean ±SD ([2]; genotype CYP3A4 wt/*3, n = 2): 49.15 ± 21.86 ng/mL
plasma concentration, median ([2]; genotype CYP3A4 wt/*3, n = 2): 49.15 ng/mL
plasma concentration, range ([2]; genotype CYP3A4 wt/*3, n = 2): (33.69–64.61) ng/mL
plasma concentration, mean ±SD ([2]; genotype CYP3A4 wt/*17, n = 9): 19.86 ± 24.88 ng/mL
plasma concentration, median ([2]; genotype CYP3A4 wt/*17, n = 9): 11.94 ng/mL
plasma concentration, range ([2]; genotype CYP3A4 wt/*17, n = 9): (4.46–84.57) ng/mL
plasma concentration, mean ±SD ([2]; genotype CYP3A4 wt/wt, n = 107): 24.80 ± 19.03 ng/mL
plasma concentration, median ([2]; genotype CYP3A4 wt/wt, n = 107): 19.12 ng/mL
plasma concentration, range ([2]; genotype CYP3A4 wt/wt, n = 107): (4.03–107.10) ng/mL
plasma concentration, mean ±SD ([2]; genotype CYP3A5 *3/*3, n = 117): 25.10 ± 19.66 ng/mL
plasma concentration, median ([2]; genotype CYP3A5 *3/*3, n = 117): 19.12 ng/mL
plasma concentration, range ([2]; genotype CYP3A5 *3/*3, n = 117): (4.03–107.10) ng/mL
plasma concentration, mean ±SD ([2]; genotype CYP3A5 wt/*3, n = 6): 14.14 ± 7.56 ng/mL
plasma concentration, median ([2]; genotype CYP3A5 wt/*3, n = 6): 13.61 ng/mL
plasma concentration, range ([2]; genotype CYP3A5 wt/*3, n = 6): (5.40–23.01) ng/mL
plasma concentration, mean ±SD ([2]; genotype SULT1A1 *2/*2, n = 15): 28.68 ± 24.18 ng/mL
plasma concentration, median ([2]; genotype SULT1A1 *2/*2, n = 15): 19.82 ng/mL
plasma concentration, range ([2]; genotype SULT1A1 *2/*2, n = 15): (4.57–95.87) ng/mL
plasma concentration, mean ±SD ([2]; genotype SULT1A1 wt/*2, n = 46): 26.59 ± 19.97 ng/mL
plasma concentration, median ([2]; genotype SULT1A1 wt/*2, n = 46): 22.58 ng/mL
plasma concentration, range ([2]; genotype SULT1A1 wt/*2, n = 46): (4.18–107.10) ng/mL
plasma concentration, mean ±SD ([2]; genotype SULT1A1 wt/wt, n = 60): 22.43 ± 17.79 ng/mL
plasma concentration, median ([2]; genotype SULT1A1 wt/wt, n = 60): 17.47 ng/mL
plasma concentration, range ([2]; genotype SULT1A1 wt/wt, n = 60): (4.03–89.98) ng/mL
plasma concentration, mean ±SD ([2]; genotype SULT1A2 *2/*2, n = 16): 26.59 ± 23.20 ng/mL
plasma concentration, median ([2]; genotype SULT1A2 *2/*2, n = 16): 20.76 ng/mL
plasma concentration, range ([2]; genotype SULT1A2 *2/*2, n = 16): (4.18–95.87) ng/mL
plasma concentration, mean ±SD ([2]; genotype SULT1A2 *2/*3, n = 13): 34.61 ± 20.35 ng/mL
plasma concentration, median ([2]; genotype SULT1A2 *2/*3, n = 13): 32.02 ng/mL
plasma concentration, range ([2]; genotype SULT1A2 *2/*3, n = 13): (8.94–74.06) ng/mL
plasma concentration, mean ±SD ([2]; genotype SULT1A2 *3/*3, n = 5): 27.34 ± 21.30 ng/mL
plasma concentration, median ([2]; genotype SULT1A2 *3/*3, n = 5): 21.02 ng/mL
plasma concentration, range ([2]; genotype SULT1A2 *3/*3, n = 5): (12.13–64.61) ng/mL
plasma concentration, mean ±SD ([2]; genotype SULT1A2 wt/*2, n = 33): 28.84 ± 23.78 ng/mL
plasma concentration, median ([2]; genotype SULT1A2 wt/*2, n = 33): 23.22 ng/mL
plasma concentration, range ([2]; genotype SULT1A2 wt/*2, n = 33): (4.46–107.10) ng/mL
plasma concentration, mean ±SD ([2]; genotype SULT1A2 wt/*3, n = 16): 23.99 ± 15.32 ng/mL
plasma concentration, median ([2]; genotype SULT1A2 wt/*3, n = 16): 19.02 ng/mL
plasma concentration, range ([2]; genotype SULT1A2 wt/*3, n = 16): (7.80–51.61) ng/mL
plasma concentration, mean ±SD ([2]; genotype SULT1A2 wt/wt, n = 38): 17.21 ± 11.79 ng/mL
plasma concentration, median ([2]; genotype SULT1A2 wt/wt, n = 38): 14.78 ng/mL
plasma concentration, range ([2]; genotype SULT1A2 wt/wt, n = 38): (4.03–58.77) ng/mL
plasma concentration, mean ±SD ([2]; genotype SULT1E1 *2/*2, n = 5): 16.05 ± 8.07 ng/mL
plasma concentration, median ([2]; genotype SULT1E1 *2/*2, n = 5): 20.60 ng/mL
plasma concentration, range ([2]; genotype SULT1E1 *2/*2, n = 5): (6.74–23.01) ng/mL
plasma concentration, mean ±SD ([2]; genotype SULT1E1 wt/*2, n = 28): 24.30 ± 20.87 ng/mL
plasma concentration, median ([2]; genotype SULT1E1 wt/*2, n = 28): 18.04 ng/mL
plasma concentration, range ([2]; genotype SULT1E1 wt/*2, n = 28): (4.18–95.87) ng/mL
plasma concentration, mean ±SD ([2]; genotype SULT1E1 wt/wt, n = 88): 25.41 ± 19.51 ng/mL
plasma concentration, median ([2]; genotype SULT1E1 wt/wt, n = 88): 19.12 ng/mL
plasma concentration, range ([2]; genotype SULT1E1 wt/wt, n = 88): (4.03–107.10) ng/mL
mean plasma concentration (±SD) ([2]; patients not receiving CYP2D6 inhibitors): 25.30 ± 19.39 ng/mL
mean plasma concentration (±SD) ([2]; patients receiving CYP2D6 inhibitors concomitantly with TAM): 15.55 ± 17.77 ng/mL
SMILES: CC/C(=C(\c1ccc(O)cc1)c1ccc(OCCNC)cc1)c1ccccc1 [Endoxifen, N-desmethyl-4-hydroxy-tamoxifen]
estrogen receptor affinity relative to TAM (estrogen receptor): 100 fold
serum levels relative to 4OH-TAM [1]: 10 fold

SMILES: CC/C(=C(\c1ccccc1)c1ccc(OCCNC)cc1)c1ccccc1 [N-desmethyl-tamoxifen]
share of primary TAM oxidation (CYP3A4/5): 90%
mean plasma concentration (±SD) [2, 3]: 450.54 ± 188.79 ng/mL
median plasma concentration [2, 3]: 418.46 ng/mL
mean concentration relative to the TAM concentration ([2]; all samples, n = 125): over 2 times
plasma concentration, mean ±SD ([2]; genotype SULT1A1 *2/*2, n = 15): 459.42 ± 160.94 ng/mL
plasma concentration, median ([2]; genotype SULT1A1 *2/*2, n = 15): 432.49 ng/mL
plasma concentration, range ([2]; genotype SULT1A1 *2/*2, n = 15): (212.67–782.92) ng/mL
plasma concentration, mean ±SD ([2]; genotype SULT1A1 wt/*2, n = 46): 441.63 ± 176.28 ng/mL
plasma concentration, median ([2]; genotype SULT1A1 wt/*2, n = 46): 418.46 ng/mL
plasma concentration, range ([2]; genotype SULT1A1 wt/*2, n = 46): (196.74–1191.13) ng/mL
plasma concentration, mean ±SD ([2]; genotype SULT1A1 wt/wt, n = 60): 458.09 ± 209.96 ng/mL
plasma concentration, median ([2]; genotype SULT1A1 wt/wt, n = 60): 411.53 ng/mL
plasma concentration, range ([2]; genotype SULT1A1 wt/wt, n = 60): (35.96–1210.09) ng/mL
plasma concentration, mean ±SD ([2]; genotype SULT1A2 *2/*2, n = 16): 453.17 ± 128.87 ng/mL
plasma concentration, median ([2]; genotype SULT1A2 *2/*2, n = 16): 427.03 ng/mL
plasma concentration, range ([2]; genotype SULT1A2 *2/*2, n = 16): (238.36–782.92) ng/mL
plasma concentration, mean ±SD ([2]; genotype SULT1A2 *2/*3, n = 13): 478.66 ± 162.35 ng/mL
plasma concentration, median ([2]; genotype SULT1A2 *2/*3, n = 13): 527.52 ng/mL
plasma concentration, range ([2]; genotype SULT1A2 *2/*3, n = 13): (228.81–676.02) ng/mL
plasma concentration, mean ±SD ([2]; genotype SULT1A2 *3/*3, n = 5): 478.49 ± 198.83 ng/mL
plasma concentration, median ([2]; genotype SULT1A2 *3/*3, n = 5): 485.02 ng/mL
plasma concentration, range ([2]; genotype SULT1A2 *3/*3, n = 5): (242.88–768.62) ng/mL
plasma concentration, mean ±SD ([2]; genotype SULT1A2 wt/*2, n = 33): 478.01 ± 247.44 ng/mL
plasma concentration, median ([2]; genotype SULT1A2 wt/*2, n = 33): 399.40 ng/mL
plasma concentration, range ([2]; genotype SULT1A2 wt/*2, n = 33): (212.67–1210.09) ng/mL
plasma concentration, mean ±SD ([2]; genotype SULT1A2 wt/*3, n = 16): 425.36 ± 207.64 ng/mL
plasma concentration, median ([2]; genotype SULT1A2 wt/*3, n = 16): 324.21 ng/mL
plasma concentration, range ([2]; genotype SULT1A2 wt/*3, n = 16): (167.40–952.85) ng/mL
plasma concentration, mean ±SD ([2]; genotype SULT1A2 wt/wt, n = 38): 428.02 ± 162.17 ng/mL
plasma concentration, median ([2]; genotype SULT1A2 wt/wt, n = 38): 413.16 ng/mL
plasma concentration, range ([2]; genotype SULT1A2 wt/wt, n = 38): (35.96–847.98) ng/mL
plasma concentration, mean ±SD ([2]; genotype SULT1E1 *2/*2, n = 5): 455.57 ± 104.52 ng/mL
plasma concentration, median ([2]; genotype SULT1E1 *2/*2, n = 5): 497.51 ng/mL
plasma concentration, range ([2]; genotype SULT1E1 *2/*2, n = 5): (311.12–550.12) ng/mL
plasma concentration, mean ±SD ([2]; genotype SULT1E1 wt/*2, n = 28): 462.59 ± 167.53 ng/mL
plasma concentration, median ([2]; genotype SULT1E1 wt/*2, n = 28): 426.41 ng/mL
plasma concentration, range ([2]; genotype SULT1E1 wt/*2, n = 28): (196.74–768.62) ng/mL
plasma concentration, mean ±SD ([2]; genotype SULT1E1 wt/wt, n = 88): 448.30 ± 202.82 ng/mL
plasma concentration, median ([2]; genotype SULT1E1 wt/wt, n = 88): 399.40 ng/mL
